ChEMBL document CHEMBL1153894, “Chloroquine-astemizole hybrids with potent in vitro and in vivo antiplasmodial activity” (Bioorg Med Chem Lett, 2009)

Assays:
Plasmodium falciparum [1] = experiment: Antiplasmodial activity against chloroquine-resistant Plasmodium falciparum K1; assay type: functional, organism-based
[2] = Selectivity ratio of cytotoxicity for rat L6 cells to IC50 for Plasmodium falciparum K1; assay type: cell-based; settings: read-out: FC
L6 = experiment: Cytotoxicity against rat L6 cells; assay type: cell-based
Plasmodium berghei [3] = experiment: Antiplasmodial activity as mean survival time against Plasmodium berghei infected mice (Mus musculus) at 4 x 50 mg/kg intraperitoneal dose; assay type: functional
Plasmodium berghei [4] = experiment: Antiplasmodial activity as reduced parasitaemia against Plasmodium berghei infected mice (Mus musculus) at 4 x 20 mg/kg intraperitoneal dose; assay type: functional; parameters: scale not given: the % may be the effect or the level left
Plasmodium berghei [5] = experiment: Antiplasmodial activity as reduced parasitaemia against Plasmodium berghei infected mice (Mus musculus) at 4 x 50 mg/kg intraperitoneal dose; assay type: functional; parameters: scale not given: the % may be the effect or the level left
Plasmodium berghei [6] = experiment: Antiplasmodial activity as reduced parasitaemia against Plasmodium berghei infected mice (Mus musculus) at 4 x 10 mg/kg intraperitoneal dose; assay type: functional; parameters: scale not given: the % may be the effect or the level left
Plasmodium berghei [7] = experiment: Antiplasmodial activity as mean survival time against Plasmodium berghei infected mice (Mus musculus) at 4 x 10 mg/kg intraperitoneal dose; assay type: functional
Plasmodium berghei [8] = experiment: Antiplasmodial activity as mean survival time against Plasmodium berghei infected mice (Mus musculus) at 4 x 20 mg/kg intraperitoneal dose; assay type: functional
Plasmodium falciparum [9] = experiment: Antiplasmodial activity against chloroquine-resistant Plasmodium falciparum K1 at 5 uM; assay type: functional

For `Fc1ccc(Cn2c(N3CCC(Nc4ccnc5cc(Cl)ccc45)CC3)nc3ccccc32)cc1`, the IC50 (Plasmodium falciparum [1]) was 64 nM, the selectivity ratio [2] was over 100 and the Activity (L6) was 9.1 µM.
Work on `Fc1ccc(Cn2c(N3CCN(CCCNc4ccnc5cc(Cl)ccc45)CC3)nc3ccccc32)cc1` yielded an IC50 (Plasmodium falciparum [1]) of 23 nM, a selectivity ratio [2] of over 100 and an Activity (L6) of 6.86 µM.
Compound `Fc1ccc(Cn2c(NC3CCN(c4ccnc5cc(Cl)ccc45)CC3)nc3ccccc32)cc1` has an IC50 (Plasmodium falciparum [1]) of 37 nM, an MST (Plasmodium berghei [3]) of 13 days and a selectivity ratio [2] of over 100. It also gave an Activity (Plasmodium berghei [4]) of 80%, an Activity (Plasmodium berghei [5]) of 99% and an Activity (Plasmodium berghei [6]) of 99%. It also gave an MST (Plasmodium berghei [7]) of 17 days, an MST (Plasmodium berghei [8]) of 8 days and an Activity (L6) of 8.8 µM.
Work on `COc1ccc(CCN2CCC(Nc3nc4ccccc4n3Cc3ccc(F)cc3)CC2)cc1` [ASTEMIZOLE] yielded a selectivity ratio [2] of over 100 and an Activity (Plasmodium falciparum [9]) of 50%.
`Fc1ccc(Cn2c(N3CCN(c4ccnc5cc(Cl)ccc45)CC3)nc3ccccc32)cc1` gave an IC50 (Plasmodium falciparum [1]) of 610 nM, a selectivity ratio [2] of over 100 and an Activity (L6) of 126 µM.
